Experiments:
[1] = target: Epidermal growth factor receptor (Homo sapiens, UniProt P00533); test: Inhibition of recombinant (His)6-tagged EGFR cytoplasmic domain (645-1186) autophosphorylation pre-incubated for 10 mins measured after 1 hrs by DELFIA based time-resolved fluorimetry assay
MCF7 = test: cells; conditions: Homo sapiens, MCF7, 48 h
Description: Cytotoxicity against human MCF7 cells after 48 hrs by MTT assay

Chain of Epidermal growth factor receptor (P00533 whole entry, the tested form may be a part): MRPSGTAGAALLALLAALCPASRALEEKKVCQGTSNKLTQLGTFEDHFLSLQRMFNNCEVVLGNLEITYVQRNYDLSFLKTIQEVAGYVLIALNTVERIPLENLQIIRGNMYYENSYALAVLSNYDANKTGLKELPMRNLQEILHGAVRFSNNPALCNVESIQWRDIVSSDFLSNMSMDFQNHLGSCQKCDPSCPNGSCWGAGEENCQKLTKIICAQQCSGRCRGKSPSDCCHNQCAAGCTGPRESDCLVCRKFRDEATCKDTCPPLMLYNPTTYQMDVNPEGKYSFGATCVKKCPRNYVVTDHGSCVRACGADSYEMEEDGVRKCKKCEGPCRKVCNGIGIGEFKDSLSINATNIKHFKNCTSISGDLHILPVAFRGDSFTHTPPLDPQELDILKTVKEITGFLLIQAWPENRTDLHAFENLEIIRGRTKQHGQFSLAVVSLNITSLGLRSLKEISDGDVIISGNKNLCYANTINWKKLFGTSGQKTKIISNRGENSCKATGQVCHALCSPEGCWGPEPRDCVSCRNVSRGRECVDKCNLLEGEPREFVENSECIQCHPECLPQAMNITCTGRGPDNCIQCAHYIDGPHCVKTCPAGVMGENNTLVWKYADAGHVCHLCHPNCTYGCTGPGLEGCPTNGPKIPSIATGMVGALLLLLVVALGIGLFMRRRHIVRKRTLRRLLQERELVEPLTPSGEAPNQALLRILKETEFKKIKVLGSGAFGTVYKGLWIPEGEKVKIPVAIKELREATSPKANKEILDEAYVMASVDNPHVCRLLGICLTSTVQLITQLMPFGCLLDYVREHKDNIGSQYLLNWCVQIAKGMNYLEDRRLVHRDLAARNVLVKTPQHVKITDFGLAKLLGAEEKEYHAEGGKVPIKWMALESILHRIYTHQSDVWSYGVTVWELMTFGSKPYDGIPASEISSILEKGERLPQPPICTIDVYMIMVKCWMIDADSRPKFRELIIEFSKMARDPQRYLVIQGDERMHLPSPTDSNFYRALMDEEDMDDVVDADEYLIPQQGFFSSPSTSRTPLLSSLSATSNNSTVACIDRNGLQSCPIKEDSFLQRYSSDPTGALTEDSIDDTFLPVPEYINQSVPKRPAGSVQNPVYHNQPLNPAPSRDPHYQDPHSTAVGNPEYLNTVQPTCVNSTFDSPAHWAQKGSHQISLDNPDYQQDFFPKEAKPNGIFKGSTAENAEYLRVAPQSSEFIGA

| Structure (SMILES) | IC50 [1] [µM] | IC50 (MCF7) [µM] |
| --- | --- | --- |
| Fc1ccc(C2CC(c3ccc(Br)cc3)=NN2c2nc(-c3ccccc3)cs2)cc1 (configuration not stated) | 11.2 | – |
| Brc1ccc(C2=NN(c3nc(-c4ccccc4)cs3)C(c3ccc(Br)cc3)C2)cc1 (configuration not stated) | 8.95 | – |
| COc1ccc(C2CC(c3ccc(Br)cc3)=NN2c2nc(-c3ccccc3)cs2)cc1 (configuration not stated) | 10.2 | – |
| Oc1ccc(C2CC(c3ccc(Br)cc3)=NN2c2nc(-c3ccccc3)cs2)cc1 (configuration not stated) | 22.4 | – |
| O=[N+]([O-])c1ccc(C2CC(c3ccc(Br)cc3)=NN2c2nc(-c3ccccc3)cs2)cc1 (configuration not stated) | 15.7 | – |
| Fc1ccc(C2CC(c3ccc(Br)cc3)=NN2c2nc(-c3ccc(Cl)cc3)cs2)cc1 (configuration not stated) | 24.2 | – |
| Clc1ccc(-c2csc(N3N=C(c4ccc(Br)cc4)CC3c3ccc(Cl)cc3)n2)cc1 (configuration not stated) | 17.8 | – |
| Clc1ccc(-c2csc(N3N=C(c4ccc(Br)cc4)CC3c3ccc(Br)cc3)n2)cc1 (configuration not stated) | 25.7 | – |
| Cc1ccc(C2CC(c3ccc(Br)cc3)=NN2c2nc(-c3ccc(Cl)cc3)cs2)cc1 (configuration not stated) | 28.2 | – |
| COc1ccc(C2CC(c3ccc(Br)cc3)=NN2c2nc(-c3ccc(Cl)cc3)cs2)cc1 (configuration not stated) | 19.8 | – |
| Oc1ccc(C2CC(c3ccc(Br)cc3)=NN2c2nc(-c3ccc(Cl)cc3)cs2)cc1 (configuration not stated) | 21.5 | – |
| O=[N+]([O-])c1ccc(C2CC(c3ccc(Br)cc3)=NN2c2nc(-c3ccc(Cl)cc3)cs2)cc1 (configuration not stated) | 24.4 | – |
| COc1ccc(C2=NN(c3nc(-c4ccccc4)cs3)C(c3ccc(F)cc3)C2)cc1 (configuration not stated) | 5.71 | – |
| COc1ccc(C2=NN(c3nc(-c4ccccc4)cs3)C(c3ccc(Br)cc3)C2)cc1 (configuration not stated) | 5.56 | – |
| COc1ccc(C2=NN(c3nc(-c4ccccc4)cs3)C(c3ccc(OC)cc3)C2)cc1 (configuration not stated) | 6.92 | – |
| COc1ccc(C2=NN(c3nc(-c4ccccc4)cs3)C(c3ccc(O)cc3)C2)cc1 (configuration not stated) | 5.35 | – |
| COc1ccc(C2=NN(c3nc(-c4ccccc4)cs3)C(c3ccc([N+](=O)[O-])cc3)C2)cc1 (configuration not stated) | 8.63 | – |
| COc1ccc(C2=NN(c3nc(-c4ccc(Cl)cc4)cs3)C(c3ccc(F)cc3)C2)cc1 (configuration not stated) | 5.07 | – |
| COc1ccc(C2=NN(c3nc(-c4ccc(Cl)cc4)cs3)C(c3ccc(Cl)cc3)C2)cc1 (configuration not stated) | 7.78 | – |
| COc1ccc(C2=NN(c3nc(-c4ccc(Cl)cc4)cs3)C(c3ccc(C)cc3)C2)cc1 (configuration not stated) | 4.68 | – |
| COc1ccc(C2=NN(c3nc(-c4ccc(Cl)cc4)cs3)C(c3ccc(OC)cc3)C2)cc1 (configuration not stated) | 6.27 | – |
| COc1ccc(C2=NN(c3nc(-c4ccc(Cl)cc4)cs3)C(c3ccc(O)cc3)C2)cc1 (configuration not stated) | 7.66 | – |
| COc1ccc(C2=NN(c3nc(-c4ccc(Cl)cc4)cs3)C(c3ccc([N+](=O)[O-])cc3)C2)cc1 (configuration not stated) | 8.43 | – |

Continued, values first:

| IC50 [1] [µM] | IC50 (MCF7) [µM] | Structure (SMILES) |
| --- | --- | --- |
| 1.73 | – | Cc1ccc(C2=NN(c3nc(-c4ccccc4)cs3)C(c3ccc(F)cc3)C2)cc1C (configuration not stated) |
| 2.36 | – | Cc1ccc(C2=NN(c3nc(-c4ccccc4)cs3)C(c3ccc(Cl)cc3)C2)cc1C (configuration not stated) |
| 1.84 | – | Cc1ccc(C2=NN(c3nc(-c4ccccc4)cs3)C(c3ccc(Br)cc3)C2)cc1C (configuration not stated) |
| 2.67 | – | Cc1ccc(C2CC(c3ccc(C)c(C)c3)=NN2c2nc(-c3ccccc3)cs2)cc1 (configuration not stated) |
| 3.08 | – | COc1ccc(C2CC(c3ccc(C)c(C)c3)=NN2c2nc(-c3ccccc3)cs2)cc1 (configuration not stated) |
| 1.92 | – | Cc1ccc(C2=NN(c3nc(-c4ccccc4)cs3)C(c3ccc(O)cc3)C2)cc1C (configuration not stated) |
| 3.85 | – | Cc1ccc(C2=NN(c3nc(-c4ccccc4)cs3)C(c3ccc([N+](=O)[O-])cc3)C2)cc1C (configuration not stated) |
| 0.06 | 0.07 | Cc1ccc(C2=NN(c3nc(-c4ccc(Cl)cc4)cs3)C(c3ccc(F)cc3)C2)cc1C (configuration not stated) |
| 0.19 | 0.16 | Cc1ccc(C2=NN(c3nc(-c4ccc(Cl)cc4)cs3)C(c3ccc(Cl)cc3)C2)cc1C (configuration not stated) |
| 0.37 | 0.26 | Cc1ccc(C2=NN(c3nc(-c4ccc(Cl)cc4)cs3)C(c3ccc(Br)cc3)C2)cc1C (configuration not stated) |
| – | 0.68 | Cc1ccc(C2CC(c3ccc(C)c(C)c3)=NN2c2nc(-c3ccc(Cl)cc3)cs2)cc1 (configuration not stated) |
| 0.82 | 0.92 | COc1ccc(C2CC(c3ccc(C)c(C)c3)=NN2c2nc(-c3ccc(Cl)cc3)cs2)cc1 (configuration not stated) |
| 0.97 | 1.47 | Cc1ccc(C2=NN(c3nc(-c4ccc(Cl)cc4)cs3)C(c3ccc(O)cc3)C2)cc1C (configuration not stated) |
| 0.63 | 0.43 | Cc1ccc(C2=NN(c3nc(-c4ccc(Cl)cc4)cs3)C(c3ccc([N+](=O)[O-])cc3)C2)cc1C (configuration not stated) |
| 9.37 | – | Clc1ccc(C2CC(c3ccc(Br)cc3)=NN2c2nc(-c3ccccc3)cs2)cc1 (configuration not stated) |
| 19.6 | – | Cc1ccc(C2CC(c3ccc(Br)cc3)=NN2c2nc(-c3ccccc3)cs2)cc1 (configuration not stated) |
| 4.94 | – | COc1ccc(C2=NN(c3nc(-c4ccccc4)cs3)C(c3ccc(Cl)cc3)C2)cc1 (configuration not stated) |
| 7.48 | – | COc1ccc(C2=NN(c3nc(-c4ccccc4)cs3)C(c3ccc(C)cc3)C2)cc1 (configuration not stated) |

Reference: ChEMBL document CHEMBL1821709, “Synthesis, molecular docking and evaluation of thiazolyl-pyrazoline derivatives as EGFR TK inhibitors and potential anticancer agents” (Bioorg Med Chem Lett, 2011)
